Results: patent publication US11021598B2, “Resin molded product, laminate, and decorative sheet” (TOPPAN PRINTING CO., LTD., priority 2017, dated 2021)

Experiments:
[1] = pKa of ultraviolet absorber upon light absorption; format: physicochemical; details: when irradiated with light, absorption spectrum; for pKa: acetonitrile solution titrated with 70% perchloric acid
Protocol: (Method of Measuring pKa of Ultraviolet Absorber Upon Light Absorption)
The ultraviolet absorber was dissolved in acetonitrile so that the absorbance at the maximum absorption wavelength became 1, and bubbling with nitrogen was performed for 15 minutes. Then, 70% perchloric acid was dropped into the solution to change the pH of the solution. At that time, the absorption spectrum of the solution was measured, and, from the absorbance at λmax, the ultraviolet absorber at each pH and the ultraviolet absorber in which hydrogen ion is added to the nitrogen of the benzotriazole skeleton or triazine skeleton of the ultraviolet absorber were obtained. From the point where these values become equal, pKa of the ultraviolet absorber upon light absorption was determined. Measurement of the absorption spectrum was performed by using a U-4000 spectrophotometer manufactured by Hitachi High-Technologies Corporation.

[2] = pKa of photostabilizer (half neutralization potential titration); format: physicochemical; details: non-aqueous titration, HNP calibration curve
Protocol: (Method of Measuring pKa of Photostabilizer)
A solution of 0.1 N perchloric acid/dioxane and acetonitrile:chloroform=1:1 was added dropwise to an organic reference substance having known pKa value in an aqueous system to determine the half neutralization potential (HNP) by titration in a non-aqueous system. A plot of the HNP calibration curve for pKa was prepared. Then, titration was performed for the photostabilizer in the same manner to determine a corresponding pKa from the plot of calibration curve.

| Compound | Photostabilizer pKa [2] | other results |
| --- | --- | --- |
| CC(C)(C)CC(C)(C)c1ccc(O)c(-n2nc3ccccc3n2)c1 [Tinuvin 329] |  | Ultraviolet absorber pKa ([1]; acetonitrile, 70% perchloric acid): −4.9 |
| CC1(C)CC(OC(=O)CCCCCCCCC(=O)OC2CC(C)(C)NC(C)(C)C2)CC(C)(C)N1 [Chimassorb 770] | 9.0 |  |
| CCCCCCCCCCCCCCN1C(=O)NC2(CC(C)(C)N(C(C)=O)C(C)(C)C2)C1=O [8-acetyl-3-tetradecyl-7,7,9,9-tetramethyl-1,3,8-triazaspiro[4.5]decane-2,4-dione] |  | pKa [2]: 3.5 |
| CCCCN(c1nc(NCCO)nc(N(CCCC)C2CC(C)(C)N(OC3CCCCC3)C(C)(C)C2)n1)C1CC(C)(C)N(OC2CCCCC2)C(C)(C)C1 [Tinuvin 152] | 7.0 |  |
| CCCCCCCCOc1ccc(-c2nc(-c3ccc(C)cc3C)nc(-c3ccc(C)cc3C)n2)c(O)c1 [CYASORB UV-1164, 2,4-bis(2,4-dimethylphenyl)-6-(2-hydroxy-4-n-octyloxyphenyl)-1,3,5-triazine] |  | pKa [1]: -5 |
| CCCCCCCCON1C(C)(C)CC(OC(=O)CCCCCCCCC(=O)OC2CC(C)(C)N(OCCCCCCCC)C(C)(C)C2)CC1(C)C [Tinuvin 123] | 4.7 | Photostabilizer pKa ([2]; listed as Tinuvin123): 4.5 |
| Cc1cc(-n2nc3ccc(Cl)cc3n2)c(O)c(C(C)(C)C)c1 [Tinuvin 326, 2-(5-chloro-2-benzotriazolyl)-6-tert-butyl-p-cresol] |  | pKa [1]: -4.9 |

Now from value to molecule, other results behind:

| Photostabilizer pKa [2] | Compound | other results |
| --- | --- | --- |
| 9.5 | CCCCC(Cc1cc(C(C)(C)C)c(O)c(C(C)(C)C)c1)(C(=O)OC1CC(C)(C)N(C)C(C)(C)C1)C(=O)OC1CC(C)(C)N(C)C(C)(C)C1 [Tinuvin PA144] |  |
| 5.5 | CCCCCCCCCCCON1C(C)(C)CC(OC(=O)OC2CC(C)(C)N(OCCCCCCCCCCC)C(C)(C)C2)CC1(C)C [LA-81] |  |
